The values that follow come from US12128129B2, “Lactobacillus plantarum for skin care” (SYMRISE AG, priority 2019, dated 2024).

Assay type in all cases: cell-based, human
The test system of assay [1] is HaCaT keratinocytes. As to the kind of experiment: IL-8 release after IL-1alpha stimulation of pre-treated keratinocytes (ELISA). Conditions: 48 h pre-treatment, then 30 ng/mL IL-1alpha for 8 h. As to the method:
Anti-Inflammatory Effects of Lactobacillus plantarum HEAL 19 and HEAL 99 HaCaT keratinocytes were cultivated in 96-well plates using RPMI-A, medium sterile filtered with L-Glutamine, Capricorn, supplemented with 10% fetal calf serum (FCS), Capricorn. The plates were incubated at 37° C. and 5% CO2. After 24 hours starvation with cell culture medium (RPMI, 1% FCS) the cells were washed once. The anti-inflammatory substances/inactivated bacteria suspensions were suspended in starvation medium, applied and incubated for 24/48 h with parameters described above. […] To remove bacterial cells after pre-incubation all wells were washed with cell culture medium three times. IL-1alpha, Gibco, life technologies was dissolved in H2Odest, diluted in starvation medium and pipetted to wells, preferably at a concentration of 30 ng/mL. Alternatively, a heat inactivated Staphylococcus aureus (DSM799) suspension was used as pro-inflammatory agent in a concentration of 0.1 mg/mL-1 mg/mL dry mass. After 8 h incubation the supernatants were separated. All samples were stored at −80° C. until further analyses. IL-8 concentrations were measured with Human CXCL8/IL-8, DuoSet ELISA, Development Systems, R&D Systems. The experimental procedure was performed as described in the provided protocol. After calculating means of the duplicate/triplicate values and subtraction of the average zero standard optical density the calculation was done using four parameter logistic curve-fit for creating standard curves.

The subject of assay [2] is HaCaT keratinocytes. As to the kind of experiment: AMP gene expression in keratinocytes grown as mono-layer (real time PCR, TaqMan array). As to conditions: 0.1 and 0.05% tested, 24 h treatment, HaCaT. The method, then:
Effects of Lactobacillus Strains on AMP Gene Expression in Keratinocytes Grown as Mono-Layer
AMP inductions were measured with real time PCR analysis using Taq-Man® Array fast 96-well plates.
HaCaT keratinocytes were cultivated in EpiLife medium, cascade Biologics, Gibco, incl. HKGS, Gibco, life technologies. Test substances were diluted in equal medium and added in a volume of 2 mL per well on 6-well plates. All samples are tested on 100% confluent cells incubated at 37° C., 5% CO2. After 24 h incubation time all samples were removed and cells washed twice with Dulbecco's Phosphate Buffered Saline with Ca and Mg, Capricorn. RNA isolation was performed using RNeasy® Mini Kit, Qiagen. The procedure has been done as describes in the RNeasy Mini Handbook.
Cells were lysed and precipitated with ethanol, the homogenate was washed three times using the spin column and the mRNA was eluated with purified water. Depending on the sample the procedure was slightly adjusted.
RNA concentration was measured using μCuvetteG 1.0 and BioPhotometer, Eppendorf by measuring the absorption at 260 nm. Control values, like E260/280 or E260/230 were calculated simultaneously. Transcription was done with a minimum of 0.5-1 μg RNA per sample.
Reverse transcription was done using high capacity RNA-to-cDNA Kit, Applied Biosystems. The procedure was based on the provided protocol. All samples were incubated in a PCR Thermocycler, Biometra running 60 min at 37° C. for reverse transcription, followed by 5 min at 95° C. (enzyme inactivation) and holding temperature at 4° C. in reaction room.
Quantitative Real-Time PCR was done using StepOne Plus Fast Real Time PCR Instrument, Applied Biosystems. Initial steps of the RT-PCR included a first heating phase holding for 20 s at 95° C., followed by 40 cycles of cDNA denaturation for 3 s at 95° C. and annealing/elongation at 60° C. for 30 s.
Analysis was done by 2-ACT Method—in detail: • 1. Standardization of Ct values with reference-gen (HPRT) ΔCTvaluegene=CTvaluegene−CTvalueReferencegene (HPRT) • 2. Subtraction of ACT-value of control sample (untreated) and ACT-value (treated) ΔΔCTvaluegene=ΔCTvaluetreated−ΔCTvaluecontrol • 3. Calculation of RQ-Ratio (relative quantification-value) RQ−value=2^−ΔΔCT
A RQ-Value of >2 was defined as relevant induction of a gene.

The subject of assay [3] is HEPKp 3 dimensional skin models. Kind of assay: Induction of hyaluronic acid in HEPKp 3D skin models (ELISA). Conditions: 0.005% in cell culture medium, 8 days treatment. As to the method: Induction of Hyaluronic Acid Human epidermal keratinocyte progenitors (HEPKp) generated 3d human skin models were cultivated and systemically treated with test substances. Briefly, defined concentrations of test substances were added to cell culture medium and each skin model was treated in cell culture dishes for up to 9 days at 37° C. and 5% CO2. After the treatment, collected supernatants were stored at −80° C. until further analyses. Viability of the cells was controlled by MTT standard method. Hyaluronic acid concentrations were measured by TECOmedical hyaluronic acid plus ELISA. The experimental procedure was performed as described in the provided protocol.

Assay [4] has the same test system. Kind of assay: Filaggrin release from HEPKp 3D skin models (ELISA). Conditions: 0.05%, after 8 days, vs medium control. From the text: Induction of Moisturizing Factor Filaggrin in 3D Skin Models Three dimensional skin models derived from human epidermal keratinocyte progenitors (HEPKp) and were systemically treated with test substances in CnT-PR-3D medium for 4 to 9 days. The filaggrin release was detected in the media by ELISA, Enzyme-linked Immunosorbent Assay Kit for filaggrin, Cloud-Clone Corp.

As for `C[C@@H]1C[C@H]2[C@@H]3CCC4=CC(=O)C=C[C@]4(C)[C@@]3(F)[C@@H](O)C[C@]2(C)[C@@]1(O)C(=O)CO` [dexamethasone, reference compound], the “IL-8 release reduced to, compared to not pre-treated IL-1alpha control” value with HaCaT keratinocytes [1] (30 μM, positive control) stood at 20.4%.

With “Lactobacillus plantarum HEAL 99 (DSM 15316) [L. plantarum HEAL 99]”, in the assay with HaCaT keratinocytes [2], the “induction of AMP coding gene Peptidase inhibitor 3” value is recorded as “induced concentration dependently”, the “induction of AMP coding gene Phospholipase A2” value is “induced concentration dependently”, the “induction of AMP coding gene RNase 7” value is reported as “induced concentration dependently” and the “induction of AMP coding gene Secretory leukocyte peptidase inhibitor” value is on record as “induced concentration dependently”. Besides, in the assay on HaCaT keratinocytes [2], the “induction of AMP coding gene β-Defensin 3” value was “induced concentration dependently”. Moreover, in the assay on HaCaT keratinocytes [1] (0.1 mg/mL), the “IL-8 release reduced to, compared to not pre-treated IL-1alpha control” value was 12.6%. For the same compound, the “hyaluronic acid release compared to the medium control” value in assay [3] is listed as 115%. For the same compound, the “filaggrin (FLG) release in medium” value in assay [4] is on record as 150%.
